Tests used:
HOM2 cells = assay: 35S-methionine/cysteine pulse/chase of HOM2 cells, immunoprecipitation of class II with Tu36, SDS-PAGE (Ii processing and SDS-stable peptide-loaded αβ dimers)
cathepsin D [1] = assay: Inhibition of cathepsin D activity in human monocytes; format: cell-based
cathepsin D [2] = target: cathepsin D (Homo sapiens, UniProt P07339); conditions: Alteri et al. 1993; cited from earlier work
cathepsin B = cathepsin B (Homo sapiens, UniProt P07858); assay: Active site labeling of cysteine proteases with Cbz-[125I]-Tyr-Ala-CN2 in HOM2 cells after preincubation with inhibitor; conditions: inhibitor concentration of 5 nM
[3] = test system: Peripheral blood mononuclear cells (PBMC's); format: cell-based, human; conditions: 3-5 days
cathepsin H = target: T1, cathepsin H (Homo sapiens, UniProt P09668); assay: Inhibition of purified human cathepsin H; format: biochemical; conditions: concentration not given
T1 sequence (P09668 98-335): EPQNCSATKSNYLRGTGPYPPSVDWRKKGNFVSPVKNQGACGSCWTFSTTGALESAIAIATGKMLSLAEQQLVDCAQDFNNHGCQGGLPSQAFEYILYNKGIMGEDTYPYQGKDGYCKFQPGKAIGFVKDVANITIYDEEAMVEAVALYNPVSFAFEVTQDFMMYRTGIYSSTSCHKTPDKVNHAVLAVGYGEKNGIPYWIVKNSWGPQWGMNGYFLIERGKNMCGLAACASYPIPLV

cathepsin S = cathepsin S (Homo sapiens, UniProt P25774); assay: Active site labeling of cysteine proteases with Cbz-[125I]-Tyr-Ala-CN2 in HOM2 cells after preincubation with inhibitor; conditions: LHVS concentration of 1 nM, 37°C 1 hour prior to labeling
Sequence of cathepsin S (P25774 115-331): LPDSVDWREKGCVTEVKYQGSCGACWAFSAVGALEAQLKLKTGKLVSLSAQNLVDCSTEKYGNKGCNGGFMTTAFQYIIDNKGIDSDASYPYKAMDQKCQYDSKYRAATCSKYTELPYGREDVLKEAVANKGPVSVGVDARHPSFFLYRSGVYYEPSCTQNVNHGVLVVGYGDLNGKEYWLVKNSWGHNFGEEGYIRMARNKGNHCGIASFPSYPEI

Sequence of cathepsin D (Homo sapiens, UniProt P07339) (P07339 65-412): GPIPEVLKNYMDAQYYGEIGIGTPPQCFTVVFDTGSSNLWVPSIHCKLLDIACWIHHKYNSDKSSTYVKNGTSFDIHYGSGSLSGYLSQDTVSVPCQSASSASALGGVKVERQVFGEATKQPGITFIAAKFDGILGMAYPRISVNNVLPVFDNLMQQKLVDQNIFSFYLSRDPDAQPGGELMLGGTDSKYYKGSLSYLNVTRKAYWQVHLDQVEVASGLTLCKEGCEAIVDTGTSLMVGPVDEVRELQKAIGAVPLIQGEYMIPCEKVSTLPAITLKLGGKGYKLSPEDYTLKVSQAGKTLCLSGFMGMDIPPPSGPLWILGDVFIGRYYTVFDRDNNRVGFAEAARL

Structure (SMILES): CCOC(=O)[C@H]1O[C@@H]1C(=O)N[C@@H](CC(C)C)C(=O)NCCC(C)C (relative stereo) [E64D]
- SDS-stable dimer formation (HOM2 cells; E64D, concentration not stated in Example 2): decrease

Structure (SMILES): CC(C)[C@H](NC(=O)[C@H](Cc1ccccc1)C[C@H](O)[C@H](Cc1ccccc1)NC(=O)OC(C)(C)C)C(=O)N[C@@H](Cc1ccccc1)C(=O)N1CCOCC1 [CGP 53437]
- SDS-stable complexes (HOM2 cells; 5 µM or 50 µM CGP 53437, chase 5 hours): nor did it produce a decrease
- inhibits cathepsin D activity in human monocytes (cathepsin D [1]; 5 µM): 75%
- inhibits cathepsin D activity in human monocytes (cathepsin D [1]; 50 µM): 90%
- inhibits cathepsin D (cathepsin D [2]): nanomolar range

Structure (SMILES): CC(C)C[C@H](NC(=O)N1CCOCC1)C(=O)N[C@H](/C=C/S(=O)(=O)c1ccccc1)CCc1ccccc1 [LHVS, morpholinurea-leucine-homophenylalanine-vinylsulfone phenyl]
- formation of SDS-stable complexes (peptide loading) (HOM2 cells; 1 nM and 5 nM LHVS, chase 5 hours): marked decrease
- labeling of cathepsin B (cathepsin B): decreased, although some activity remained
- attenuation of 3H-thymidine uptake response to tetanus toxoid [3]: approximately 60%
- inhibition of purified human cathepsin H (cathepsin H): not inhibited
- labeling of cathepsin S (cathepsin S): effectively inhibited

Source: patent publication EP1400530A1, “Suppression of immune response via inhibition of cathepsin S” (MASSACHUSETTS INSTITUTE OF TECHNOLOGY, priority 1996, dated 1997)
